Measurements from US20080089956A1, “NITRIC OXIDE IN TREATMENT OF INFLAMMATION” (AGA AB, priority 2003, published 2008).
“Also recorded” adds a separate entry of the source.

Tests used:
Type in all cases: in vivo, piglets of Swedish country breed
glucocorticoid receptor = assay: GR expression, immunohistochemical staining of tissue from endotoxin-exposed piglets; conditions: compared with LPS group
Description: (§1) Anesthesia, surgery preparation and catheterizations were followed by 30 min of rest. Baseline measurements were then made. The pigs were followed for another 6 hours to establish control data over the whole study period. The pigs were killed after the last measurement with an intra-venous injection of KCl; and tissue samples were taken from the lung, liver and kidney for morphological and biochemical studies.
(§2) Anesthesia, surgery and catheterizations were similar to the controls. After baseline measurements, acute lung injury and septic shock was induced by intravenous infusion of LPS 25 μg/kg/h in saline for 2.5 h, followed by 10 μg/kg/h for the remainder of the study. […]
(§3) The antibodies were detected with the peroxidase-anti-peroxidase method using 3-amino-9-ethyl-carbazole (AEC, SIGMA Catalogue No. A-6926 Germany) as chromogen. […]
(§4) An image-analysis system consisting of a 12-bit cooled charge-coupled device camera (Sensys KAF 1400, Photometrics, Tucson, AZ) mounted on a fully automated Leica (Wetzlar, Germany) DM RXA microscope was used to digitize grey-scale images to a dual-Pentium 200 MHz host computer. […] The optimal central wavelength was determined by measurement of the substrate in a Leica MPV SP microscope photometer system (courtesy of Leica).

NF-κB = assay: Expression of NF-κB, immunohistochemical staining of tissue from endotoxin-exposed piglets
Description: as §1, §2, §3, §4

[1] = system: endotoxin pig model (LPS-induced acute lung injury and septic shock); assay: Histological changes of lung, liver and kidney tissues in endotoxin pig model; set-up: Congestion / Inflammatory cell infiltrate / Congestion and hemorrhage / Edema/ Hemorrage: key to the marks not given beside the values
Description: (§5) The pigs were divided into 5 groups: • 1. Normal control group • 2. Endotoxin (lipopolysaccharide, LPS) group • 3. LPS+INO group • 4. LPS+steoid group • 5. LPS +INO +steroid group • The different protocols are shown schematically in FIG. 1 and are described below. 1. Healthy Control Group (n=8)
as §1
(§6) After baseline measurements, acute lung injury and septic shock was induced by intravenous infusion of LPS 25 μg/kg/h in saline for 2.5 h, followed by 10 μg/kg/h for the remainder of the study. The pigs were followed by hemodynamics and blood gas measurements and were killed at the end of the experiment and tissue samples were taken, as described above.
(§7) LPS infusion was started after baseline measurements and continued for 6 hours. Two and half hours after commencement of the endotoxin infusion, inhalation of NO 30 ppm was started and maintained for 3.5 hours. Measurements were taken every hour to check for any protective effect of INO therapy on the lung and extra-pulmonary organs.
(§8) This group received endotoxin over 6 hours, as described above, and 2.5 hours after the start of endotoxin administration steroids were given i.v. and INO, 30 ppm, was commenced and continued for the remaining 3.5 hours study period.
NO, 1000 ppm in N2, was added to a mixture of O2/N2 and administered through the low-flow inlet of the ventilator. The inspired gas was passed through a canister containing soda lime to absorb any NO2. […] The concentrations of inspired NO and NO2 were measured continuously, by chemiluminescence (9841 NOx, Lear Siegler Measurement Controls Corporation, Englewood, Colo., USA), in the inspiratory limb of the ventilator tubing. FIO2 was checked after addition of NO and kept stable at the pre-INO level.

[2] = system: endotoxin pig model (LPS-induced acute lung injury and septic shock); assay: Haemodynamics and arterial oxygenation in endotoxin (LPS) pig model
Description: as §5, §6, §7, §8
NO, 1000 ppm in N2, was added to a mixture of O2/N2 and administered through the low-flow inlet of the ventilator. The inspired gas was passed through a canister containing soda lime to absorb any NO2. […] The concentrations of inspired NO and NO2 were measured continuously, by chemiluminescence (9841 NOx, Lear Siegler Measurement Controls Corporation, Englewood, Colo., USA), in the inspiratory limb of the ventilator tubing.

[3] = Kidney, piglets, LPS infusion 6 h, treatment from 2.5 h (INO 30 ppm; hydrocortisone 3.5 mg/kg i.v.)
[4] = Liver, piglets, LPS infusion 6 h, treatment from 2.5 h (INO 30 ppm; hydrocortisone 3.5 mg/kg i.v.)
[5] = piglets during 6 h endotoxin infusion, treatment from 2.5 h

Substance: nitric oxide [LPS + INO]
- expression of glucocorticoid receptor in lung tissue, in words (glucocorticoid receptor): significantly raised
- NF-kB expression in lung tissue, in words (NF-κB): at a low level
- histology changes of kidney tissue, in words ([1]; Kidney, endotoxin-exposed piglets, compared with LPS group / healthy): even less marked than in the LPS+Steroid group
- Edema/ Hemorrage [1, 3]: +++
- Inflammatory cell infiltrate [1, 3]: +++
- histology changes of liver tissue, in words ([1]; Liver, endotoxin-exposed piglets, compared with LPS group / healthy): much less than in the LPS group
- Congestion and hemorrhage [1, 4]: ++
- Destruction of the lobular structure [1, 4]: +
- Inflammatory cell infiltrate [1, 4]: +++
- histology changes of lung tissue, in words ([1]; Lung, endotoxin-exposed piglets, compared with LPS group / healthy): even less of these changes
- Inflammatory cell infiltrate ([1]; Lung, piglets, LPS infusion 6 h, treatment from 2.5 h (INO 30 ppm for 3.5 h; hydrocortisone 3.5 mg/kg i.v.)): +++
- Congestion ([1]; Lung, piglets, LPS infusion 6 h, treatment from 2.5 h (INO 30 ppm; hydrocortisone 3.5 mg/kg i.v.)): +++
- inflammatory response, in words ([1]; endotoxin pig model, lung, liver and kidney (discussion)): attenuated the inflammatory response but only to a limited degree
- arterial oxygenation (PaO2), effect in words [2, 5]: improved oxygenation; also recorded: prevented part of the fall in PaO2
- mean pulmonary artery pressure (MPAP), effect in words [2, 5]: lowered MPAP but not back to normal; also recorded: attenuated the increase in MPAP
- MPAP higher than in healthy controls ([2]; piglets during endotoxin infusion with INO 30 ppm, p<0.01 vs healthy controls): 75-80%
